These results are taken from ChEMBL document CHEMBL1201862, “PubChem BioAssay data set” (2004).

Some test systems named below: HOP-18; SNB-78; DMS-273; DLD-1; DMS-114; KM-20L2; 786-0; LXFL 529; RXF 631.
What all share (experiment): inhibition of tumour cell growth, NCI panel, 48 h

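Exposure lasted 48 hours, with cells grown in 96-well plates and compounds tested at five concentrations. GI50 = concentration required for 50% inhibition of growth.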 The source made the active and inactive calls. Cut-off read from the data, not from the text of the source: active = GI50 up to about 1.1 µM and inactive = higher. Bounds are passed on as bounds.

For the molecule `Nc1c(S(=O)(=O)O)cc2cc(S(=O)(=O)O)ccc2c1/N=N/c1ccc(-c2ccc(/N=N/c3c(N)c(S(=O)(=O)O)cc4cc(S(=O)(=O)O)ccc34)c(S(=O)(=O)O)c2)cc1`, the GI50 with HOP-18 is > 100 µM (inactive); with SNB-78, 97.7 µM (inactive); in the test with DMS-273, > 100 µM (inactive); in the test on DLD-1, > 100 µM (inactive); with DMS-114, > 100 µM (inactive); in the test with KM-20L2 it was 66.4 µM (inactive).
Take `S=CN1CCCCC1`: the GI50 with 786-0 is > 100 µM (inactive).
Turning to `N#C/C(=C\NC(=S)Nc1ccc(S(=O)(=O)Nc2ccccn2)cc1)C(N)=O`, the GI50 in the test on 786-0 was > 100 µM (inactive).
Take `CC1(C)C(N2CCOCC2)CS1(=O)=O` (centres undefined): the GI50 in the test with 786-0 is > 10 µM (inactive).
On to `CCOC(=O)C1=C(C)N(NC(N)=O)C2(O)CCCC(=O)C12C` (centres undefined), for which the GI50 in the test on LXFL 529 was > 100 µM (inactive); in the test with HOP-18 it was > 100 µM (inactive); in the test with SNB-78 it was > 100 µM (inactive); with RXF 631 it was > 100 µM (inactive); with DMS-273 it was > 100 µM (inactive); in the test with DLD-1 it was 94.4 µM (inactive). Besides, the GI50 in the test with DMS-114 and in the test with KM-20L2 was > 100 µM (inactive) throughout.
For `CC1(c2sccc2Cl)CC(c2sccc2Cl)=C(C#N)C(=C(C#N)C#N)N1` (centres undefined), in the test on 786-0, the GI50 was 18.4 µM (inactive).
As to `CSc1nc(SC)c2cnn(CC3CO3)c2n1` (centres undefined), the GI50 in the test with HOP-18 was 20.9 µM (inactive); with DMS-273 it was 22.8 µM (inactive); in the test with DLD-1, 22.3 µM (inactive); in the test with DMS-114 it was 17.4 µM (inactive); with KM-20L2 it was 18.2 µM (inactive).
As for `COc1cccc2c1C(=O)c1c(O)c3c(c(O)c1C2=O)CC(O)(C(=O)CO)CC3OC1CC(N)C(I)C(C)O1` (centres undefined), the GI50 with HOP-18 is 7.96 µM (inactive); with SNB-78, 25.7 µM (inactive); in the test on DMS-273, 0.424 µM (active); in the test on DLD-1, 2.54 µM (inactive); in the test with DMS-114, 1.63 µM (inactive); in the test with KM-20L2 it was 7.18 µM (inactive).
